From patent US9175028B2, “Glycoside compound” (AJINOMOTO CO., INC., priority 2010, dated 2015) come the findings set out here.

Molecules are shown by their SMILES. Entries after “also recorded” stand apart in the source; their conditions may differ.

Assay [1] concerns human colorectal cancer-derived cell line NCI-H716. Briefly: GLP-1 secretion, GLP-1 concentration in supernatant by ELISA. Format: cell-based. The conditions noted are these: for GLP-1 concentration in the supernatant compared to the DMSO treatment (control) group: 60 minutes, result in words (FIGS. 1-11); for fold induction at 100 µM / fold induction at 300 µM: Homo sapiens, NCI-H716, 1 h, GLP-1 concentration in supernatant against control group (0.1% DMSO) as 1, 60 minutes. The protocol:
Subcultured human colorectal cancer-derived cell line NCI-H716 (ATCC) was plated on a poly-D-lysine coated 96-well plate at 1×10^5 cells per well. After culture at 37° C., 5% CO2 for 48 hours, the medium was substituted with a buffer (146 mM NaCl, 5 mM KCl, 1 mM MgSO4, 5.5 mM Glucose, 20 mM HEPES, 1.5 mM CaCl2, 0.2% BSA, pH 7.4), and dihydrocapsiate (DCT), dihydrocapsiate glycoside and structural analogs thereof (compounds 4, 12, 47, 27, 20, 18, 16, 30, 32, 32-3, 34, 35, 36, 24-2, 33, 14, 22, 23 and 24), each prepared to a given concentration with dimethyl sulfoxide (DMSO), were added. After treatment at 37° C., 5% CO2 for 60 minutes, the supernatant was recovered, and the concentration of GLP-1 in the supernatant was measured by the ELISA method. The strength of the activity of each compound is expressed against GLP-1 concentration of the control group (0.1% DMSO treatment group) as 1, and the compound showing higher GLP-1 concentration than the control group was evaluated as active.

Assay [2] shares this test system. Described as above. Format: cell-based. The settings on record: result in words (FIG. 2).
A further assay relates to C57BL/6J mice. Briefly: food ingestion calories of mice fed test diets for 56 days. Format: in vivo. The conditions noted are these: 0.459% (w/w) in high-fat diet, mouse, compared to normal diet, high-fat diet alone or high-fat diet added with DCT, result in words, listed as glycoside DCT. The protocol:
Glycoside DCT was added at a proportion of 0.459% (w/w) to AIN-93 composition diet containing 30% lard (to be abbreviated as glycoside DCT diet or glycoside diet), and fed to mouse. […] As a control, AIN-93 composition diet containing 7% lard (to be abbreviated as normal diet), AIN-93 composition diet containing 30% lard (to be abbreviated as high-fat diet), and high-fat diet containing 0.3% (w/w) dihydrocapsiate (DCT) (to be abbreviated as DCT diet) were fed to the mouse.
The details of the test method are shown below. 7-week-old male C57BL/6J mice (n=46) (Charles River Laboratories) were acclimated for 2 weeks, divided into 4 groups such that they have the same average body weight, and each group was allowed to freely ingest a food having the composition shown in Table 2 for 56 days. The body weight and the food ingestion amount were measured every 3-4 days.

Take `COc1cc(COC(=O)CCCCCCC(C)C)ccc1O` [DCT, dihydrocapsiate, reference compound]: in assay [1], the “GLP-1 concentration in the supernatant compared to the DMSO treatment (control) group” value was “did not show a similar change”.

As to `COc1cc(COC(=O)CCCCCCC(C)C)ccc1OC1OC(CO)C(O)C(O)C1O` [compound 4, O-[4-(β-D-glucopyranosyloxy)-3-methoxybenzyl]-8-methylnonanoic acid ester], the “GLP-1 concentration compared to the group treated with equimolar concentration of glucose or cellobiose” value in assay [2] is “markedly high”. In assay [1], the “GLP-1 concentration in the supernatant compared to the DMSO treatment (control) group” value was “increased in a compound concentration-dependent manner” and the fold induction at 100 µM was determined as 2.3. Moreover, the “total ingested calories during the test period” value in the assay on C57BL/6J mice is “suppress food ingestion calories; also recorded: significant decrease”.

`COc1cc(COC(=O)CCCCCCC(C)C)ccc1OC1OC(CO)C(OC2OC(CO)C(O)C(O)C2O)C(O)C1O` [compound 12, O-[4-(β-D-glucopyranosyl-(1→4)-β-D-glucopyranosyloxy)-3-methoxybenzyl]-8-methylnonanoic acid ester]: the “GLP-1 concentration compared to the group treated with equimolar concentration of glucose or cellobiose” value in assay [2] was “markedly high”. In addition, in assay [1], the “GLP-1 concentration in the supernatant compared to the DMSO treatment (control) group” value is recorded as “increased in a compound concentration-dependent manner” and the fold induction at 100 µM is 5.02.

Consider `COc1cc(CO)ccc1O[C@@H]1O[C@H](CO)[C@@H](O[C@@H]2O[C@H](CO)[C@@H](O)[C@H](O)[C@H]2O)[C@H](O)[C@H]1O` [compound 14, 4-(β-D-glucopyranosyl-(1→4)-β-D-glucopyranosyloxy)-3-methoxybenzyl alcohol], for which, in assay [1], the “GLP-1 concentration in the supernatant compared to the DMSO treatment (control) group” value was “increased”, the fold induction at 100 µM was determined as 1.07 and the fold induction at 300 µM amounted to 1.12.

For `CCCCCCCCCC(=O)OCc1ccc(OC2OC(CO)C(O)C(O)C2O)c(OC)c1` [compound 16, O-[4-(β-D-glucopyranosyloxy)-3-methoxybenzyl]-decanoic acid ester], in assay [1], the “GLP-1 concentration in the supernatant compared to the DMSO treatment (control) group” value is recorded as “increased”, the fold induction at 100 µM is 1.23 and the fold induction at 300 µM turned out to be 3.25.

In the case of `COc1cc(COC(=O)CCCCCC(C)C)ccc1OC1OC(CO)C(O)C(O)C1O` [compound 18, O-[4-(β-D-glucopyranosyloxy)-3-methoxybenzyl]-7-methyloctanoic acid ester], in assay [1], the “GLP-1 concentration in the supernatant compared to the DMSO treatment (control) group” value is reported as “increased”, the fold induction at 100 µM turned out to be 1.33 and the fold induction at 300 µM was 1.85.

For the compound `COc1cc(COC(=O)CCCC/C=C/C(C)C)ccc1OC1OC(CO)C(O)C(O)C1O` [compound 20, O-[4-(β-D-glucopyranosyloxy)-3-methoxybenzyl]-8-methyl-6-nonenoic acid ester], in assay [1], the “GLP-1 concentration in the supernatant compared to the DMSO treatment (control) group” value was “increased”, the fold induction at 100 µM came to 1.13 and the fold induction at 300 µM amounted to 1.56.

Take `COc1cc(CC(=O)OCCCCCCCC(C)C)ccc1OC1OC(CO)C(OC2OC(CO)C(O)C(O)C2O)C(O)C1O` [compound 22, O-8-methylnonyl-2-[4-(β-D-glucopyranosyl-(1→4)-β-D-glucopyranosyloxy)-3-methoxyphenyl]acetic acid ester]: in assay [1], the “GLP-1 concentration in the supernatant compared to the DMSO treatment (control) group” value is given as “increased”, the fold induction at 100 µM turned out to be 1.87 and the fold induction at 300 µM turned out to be 1.66.

As for `COc1cc(CCOC(=O)CCCCCCC(C)C)ccc1OC1OC(CO)C(OC2OC(CO)C(O)C(O)C2O)C(O)C1O` [compound 23, O-[4-(β-D-glucopyranosyl-(1→4)-β-D-glucopyranosyloxy)-3-methoxyphenethyl]-8-methylnonanoic acid ester], in assay [1], the “GLP-1 concentration in the supernatant compared to the DMSO treatment (control) group” value was “increased”, the fold induction at 100 µM is 1.37 and the fold induction at 300 µM is 10.3.

Consider `COc1cccc(COC(=O)CCCCCCC(C)C)c1OC1OC(CO)C(OC2OC(CO)C(O)C(O)C2O)C(O)C1O` [compound 24, O-[2-(β-D-glucopyranosyl-(1→4)-β-D-glucopyranosyloxy)-3-methoxybenzyl]-8-methylnonanoic acid ester], for which, in assay [1], the “GLP-1 concentration in the supernatant compared to the DMSO treatment (control) group” value is given as “increased”, the fold induction at 100 µM was determined as 1.33 and the fold induction at 300 µM came to 9.5.

Take `COc1cccc(COC(=O)CCCCCCC(C)C)c1OC1OC(COC(C)=O)C(OC2OC(COC(C)=O)C(OC(C)=O)C(OC(C)=O)C2OC(C)=O)C(OC(C)=O)C1OC(C)=O` (centres unmarked) [compound 24-2]: in assay [1], the “GLP-1 concentration in the supernatant compared to the DMSO treatment (control) group” value is “increased”, the fold induction at 100 µM worked out at 0.87 and the fold induction at 300 µM came to 1.15.

Turning to `COc1cc(CNC(=O)CCCCCCC(C)C)ccc1O[C@@H]1O[C@H](CO)[C@@H](O[C@@H]2O[C@H](CO)[C@@H](O)[C@H](O)[C@H]2O)[C@H](O)[C@H]1O` [compound 27, N-[4-(β-D-glucopyranosyl-(1→4)-β-D-glucopyranosyloxy)-3-methoxybenzyl]-8-methylnonanamide, reference compound], in assay [1], the “GLP-1 concentration in the supernatant compared to the DMSO treatment (control) group” value is “did not show GLP-1 secretion promoting activity”, the fold induction at 100 µM came to 0.66 and the fold induction at 300 µM worked out at 0.71.

On to `COc1cc(CCC(=O)OCCCCCCCC(C)C)ccc1OC1OC(CO)C(O)C(O)C1O` [compound 30, O-8-methylnonyl-3-[4-(β-D-glucopyranosyloxy)-3-methoxyphenyl]propionic acid ester], for which, in assay [1], the “GLP-1 concentration in the supernatant compared to the DMSO treatment (control) group” value is “increased”, the fold induction at 100 µM is 0.93 and the fold induction at 300 µM turned out to be 2.6.

For `COc1cc(CCC(=O)OCCCCCCCC(C)C)ccc1OC1OC(CO)C(OC2OC(CO)C(O)C(O)C2O)C(O)C1O` [compound 32, O-8-methylnonyl-3-[4-(β-D-glucopyranosyl-(1→4)-β-D-glucopyranosyloxy)-3-methoxyphenyl]propionic acid ester], in assay [1], the “GLP-1 concentration in the supernatant compared to the DMSO treatment (control) group” value was “increased”, the fold induction at 100 µM is 1.24 and the fold induction at 300 µM is 3.46.

Take `COc1ccc(COC(=O)CCCCCCC(C)C)cc1OC1OC(CO)C(O)C(O)C1O` [compound 34, O-[3-(β-D-glucopyranosyloxy)-4-methoxybenzyl]-8-methylnonanoic acid ester]: in assay [1], the “GLP-1 concentration in the supernatant compared to the DMSO treatment (control) group” value is reported as “increased”, the fold induction at 100 µM worked out at 1.29 and the fold induction at 300 µM was determined as 1.94.

For `COc1cc(COC(=O)CCCC/C=C/C(C)C)ccc1OC1OC(CO)C(OC2OC(CO)C(O)C(O)C2O)C(O)C1O` [compound 35, O-[4-(β-D-glucopyranosyl-(1→4)-β-D-glucopyranosyloxy)-3-methoxybenzyl]-8-methyl-6-nonenoic acid ester], in assay [1], the “GLP-1 concentration in the supernatant compared to the DMSO treatment (control) group” value is “increased”, the fold induction at 100 µM was 1.14 and the fold induction at 300 µM came out at 2.4.

On to `COc1cc(COC(=O)CCCCCC(C)C)ccc1OC1OC(CO)C(OC2OC(CO)C(O)C(O)C2O)C(O)C1O` [compound 36, O-[4-(β-D-glucopyranosyl-(1→4)-β-D-glucopyranosyloxy)-3-methoxybenzyl]-7-methyloctanoic acid ester], for which, in assay [1], the “GLP-1 concentration in the supernatant compared to the DMSO treatment (control) group” value is on record as “increased”, the fold induction at 100 µM amounted to 1.19 and the fold induction at 300 µM is 2.41.

Turning to `COc1cc(CNC(=O)CCCCCCC(C)C)ccc1O[C@@H]1O[C@H](CO)[C@@H](O)[C@H](O)[C@H]1O` [compound 47, N-[4-(β-D-glucopyranosyloxy)-3-methoxybenzyl]-8-methylnonanamide, reference compound], in assay [1], the “GLP-1 concentration in the supernatant compared to the DMSO treatment (control) group” value is “did not show GLP-1 secretion promoting activity”, the fold induction at 100 µM is 0.61 and the fold induction at 300 µM turned out to be 0.78.
